The source of these data is patent US11813264B2, “PAR1 modulation to alter myelination” (Mayo Foundation for Medical Education and Research, priority 2014, dated 2023).

The subject of series [1] is primary oligodendrocyte cultures (3 DIV). The experiment in a line: ATP toxicity assay in oligodendrocytes. The series is classed as cell-based, mouse. The procedure:
(§1) PAR agonist-induced changes in oligodendrocyte morphology: To determine the effects of recombinant Klk6, Klk1, thrombin, or PAR1-AP on oligodendroglia, 3 DIV PAR1^+/+, PAR1^−/−, and PAR2^−/− oligodendrocytes, PAR1^+/+ OPCs immediately post purification, or Oli-neu cells were grown on cover slips in the presence of agonists for 24 h. For ATP toxicity assays, oligodendrocytes were incubated with ATP (50 μM, Sigma Aldrich) in the presence of Klk6 or Klk1. Following each treatment, oligodendrocyte and OPC cultures were immunolabeled for O4 to visualize the cell body and processes. Oli-neu processes were visualized by staining the actin cytoskeleton with Cy3-conjugated Phalloidin.
(§2) To assess the effects of Klk6 and other PAR1 agonists on oligodendrocyte morphology and process stability, 20× digital micrographs were overlaid with a 780 μm^2 grid and ImageJ software 1.45r (National Institutes of Health) used to record cell number and the number of processes crossing horizontal grid lines (Scarisbrick et al., Brain 125:1283-1296, 2002). Data are expressed as the mean number of O4^+ or Phalloidin^+ processes per DAPI^+ cell (±SEM).
(§3) The extent of oligodendrocyte morphological differentiation was determined by scoring O4^+/DAPI^+ oligodendrocyte morphology as simple (only primary processes, no secondary branching), incomplete (one or more primary process without secondary branching), complete (all primary processes with secondary branching), or membrane (complete secondary branching with membrane sheets) (Huang et al., Nat Neurosci 14:45-53, 2011). The mean number of cells in each morphology class was determined across treatments and expressed as percent of total O4^+/DAPI^+ cells.
(§4) Changes in OPC or oligodendrocyte morphology were quantified from five microscopic fields per cover slip with the mean and SEM calculated across three cover slips per experiment. Each experiment was repeated at least twice using independent cultures. Analysis of oligodendrocyte morphology was performed without knowledge of treatment groups.

Series [2] relates to PLP and MBP RNA expression. The experiment in a line: Myelin gene expression (PLP, MBP RNA) in Oli-neu oligodendrocytes, quantitative RT-PCR. The series is classed as cell-based, mouse. To be noted: for PLP expression: 24 hours, Klk6 300 nM, thrombin 270 nM, PAR1-AP 100 μM, Klk1 300 nM. The protocol: (§5) Oli-neu oligodendrocytes are derived from mouse primary oligodendrocyte cultures retrovirally transduced to constitutively express the t-neu oncogene (Jung et al., Eur J Neurosci 7:1245-1265, 1995). All morphology, signaling, and myelin gene expression studies using Oli-neu oligodendrocytes were performed in media containing DMEM, 1% N2, 2 mM Glutamax, 1 mM sodium pyruvate, 20 mM HEPES buffer, and 50 μM β-mercaptoethanol (Sigma Aldrich. To evaluate PAR and Klk6 gene expression in Oli-neu (Table 2), cells were differentiated by treatment with 1 mM N^6, 2′-O-dibutyryladenosine 3′, 5′-cyclic monophosphate disodium salt (dbcAMP) for 72 hours prior to harvesting for RNA isolation. All cells were maintained at 37° C. in 95% air and 5% CO2. Cell culture reagents were obtained from Life Technologies (Carlsbad, CA) unless otherwise indicated. All cell culture experiments were performed in triplicate and repeated at least twice.
Expression of oligodendrocyte PARs and Klk6-real-time quantitative PCR: Total RNA was isolated from cultured cells using RNA STAT-60 (Tel-Test, Friendswood, TX). Klk6, PAR1, or PAR2 RNA expression was determined in 0.5 μg of RNA with the iScript one-step RT-PCR kit with SYBR® Green and the iCycler iQ5 system (BioRad, Hercules, CA). Transcript copy number was determined using a standard curve prepared by parallel amplification of cDNA clones diluted to known copy number (Christophi et al., J Neurochem 91:1439-1449, 2004). Amplification of the housekeeping gene glyceraldehyde phosphate 3-dehydrogenase (GAPDH) was used to control for loading. The mean and standard error (SEM) of transcript copy number was determined and data expressed as RNA copy number on a logarithmic scale.
Regulation of oligodendrocyte myelin gene expression by PAR1 agonists: Primary murine oligodendrocytes (3 DIV) or Oli-neu oligodendrocytes were seeded at 3.5×10^5 cells/well in six-well tissue culture plates. Cells were then treated with Klk6 (30-300 nM), Klk1 (300 nM), thrombin (270 nM), or PAR1-AP (100 μM) for 24 hours prior to RNA isolation. Expression of myelin-associated genes, PLP, and MBP was examined by real-time quantitative RT-PCR. Expression levels of target genes were normalized to GAPDH and expressed as percent control.

Series [3] deals with primary oligodendrocyte cultures (3 DIV). The experiment in a line: Oligodendrocyte morphological differentiation scoring (simple, incomplete, complete, membrane), process and cell number. It is filed as cell-based, mouse. The procedure: (§6) Oligodendrocyte Cultures: Purified cortical oligodendrocyte progenitor cells (OPCs) and differentiated oligodendrocytes were isolated from mixed glial cultures derived from postnatal day 1 mice (McCarthy and de Vellis, J Cell Blot 85:890-902, 1980). Glial cultures were grown in media containing DMEM, 2 mM Glutamax, 1 mM sodium pyruvate, 20 mM HEPES, and 10% heat-inactivated fetal calf serum (Atlanta Biologicals, Lawrenceville, GA). OPCs were isolated from 10 days-in-vitro (DIV) mixed glial cultures by overnight shaking and purified by differential adhesion. OPCs were seeded in defined Neurobasal A media containing 1% N2, 50 U/mL penicillin/streptomycin, 2 mM Glutamax, 1 mM sodium pyruvate, 0.45% glucose, and 50 μM β-mercaptoethanol (Sigma Aldrich, USA). OPCs were seeded at 3×10^4/cm^2 onto tissue culture plastic or 12 mm glass cover slips coated with poly-L-lysine (PLL, 10 μg/mL). After 24 h, cultures were 92-98% immunoreactive (IR) for sulfatide (O4) and by 72 hours at least 80% were also MBP-IR.
as §1, §2, §3, §4

The next series relates to Oli-neu oligodendrocytes. The experiment in a line: Process retraction in Oli-neu oligodendrocytes (Phalloidin+ processes per cell). It is filed as cell-based, mouse. To be noted: 24 hours, PAR1-AP 100 μM, Klk1 300 nM; for number of processes per cell: Klk6 30, 150, 300 nM, thrombin 270 nM. The procedure: as §5, §1, §2
The subject of series [4] is oligodendrocyte progenitor cells (OPCs). The experiment in a line: OPC process outgrowth. It is filed as cell-based, mouse. Conditions: 24 h; for OPC process extension / outgrowth: Klk6 150 nM, thrombin 135 nM, Klk1 150 nM. The procedure: as §6, §1, §2, §4
The subject of another series is Erk1/2 phosphorylation. The experiment in a line: Klk6-PAR signaling assay, Erk1/2 phosphorylation by Western blot in Oli-neu. The series is classed as cell-based, mouse. Conditions: treatment alone; Klk6 10 minutes. The procedure: Klk6-PAR signaling assays: To examine the ability of Klk6 to mediate PAR-dependent signaling in oligodendrocytes, Oli-neu oligodendroglia (3.5×10^5 cells/well in six-well plates) were treated with Klk6 (150 nM) for 10 min, followed by protein harvest. Cell lysates were analyzed for phosphorylated or nonphosphorylated Erk1/2 by Western blot. In experiments to determine the role of PARs in Klk6 signaling, Oli-neu were preincubated with the PAR1 antagonist, SCH79797 dihydrochloride (50 nM, Tocris Biosciences, Minneapolis, MN) for 30 minutes prior to Klk6 application.
Western blot: Oli-neu lysates were obtained using a buffer containing 1% NP40, 0.5% deoxycholate, 10% glycerol, and 20 mM Tris base and separated on SDS-polyacrylamide gels prior to transfer. Membranes were blocked with 5% milk in TBS-T and incubated overnight with primary antibodies including rabbit anti-phospho-Erk1/2 (1:1,000, Cell Signaling Technology, Danvers, MA), followed with a species-appropriate horseradish peroxidase-conjugated secondary antibody (1:20,000 GE Healthcare Unlimited, UK). Signal was detected using Chemiluminescence Supersignal Pico (Pierce, Rockford, IL). Western blots were repeated three times from independent cultures, scanned, and quantified by densitometry (BioRad Quantity One 1-D Analysis Software, BioRad, Hercules, CA). Erk1/2 signal was normalized to its nonphosphorylated form. Equal loading was verified by reprobing blots for […] (Novus Biologicals, Littleton, CO).
(In general: Immunoblotting shows a protein as a band on a membrane.)

Another series relates to spinal cord white matter. The experiment in a line: Microinjection of Klk6 or PAR1-AP into spinal cord dorsal column white matter. The series is classed as in vivo, mouse. The protocol:
In vivo effects of excess Klk6 or PAR1-AP in spinal cord white matter: All mice were administered Buprenorphine preoperatively (Buprenex, 0.03 mg/kg, intraperitoneal (i.p.), Reckitt Benckise, Slough, UK) and every 12 hours for the first 48 hours following surgery. Surgical anesthesia was induced in age-matched male C57BL6/J or PAR12/2 mice using Ketamine (Ketaset, 80 mg/kg, Fort Dodge Animal Health, Fort Dodge, IA) and Xylazine i.p. (Anased, 10 mg/kg, Lloyd Laboratories, Shenendoah, IA). A thoracic (T11-T12) laminectomy was performed and a 30-40 μm glass capillary needle inserted into a 10 μL gas-tight Hamilton Syringe (Hamilton Company, Reno, NV) used to deliver 2 μL of Klk6 (0.01 μg/μL (300 nM)), PAR1-AP (0.01 μg/μL (100 μM)), or vehicle (physiologic saline) alone (n=3 for each treatment group) using a stereotaxic injection system (Stoelting, Wood Dale, IL). Under micromanipulator control (MyNeurolab, Richmond, IL), the needle was inserted 350 μm into the dorsal column, infusion carried out over 5 minutes and the needle left in place for 3 minutes to avoid backflow. All mice received 0.5 mL of sterile saline and Baytril (2.5 mg/kg, Bayer Healthcare, Shawnee Mission, KS) i.p. postoperatively.
Seventy-two hours after microinjection of PAR1 agonists, mice were deeply anesthetized with Nembutal (50 mg/kg, i.p., Lundbeck, Deerfield, IL) and perfused transcardially with 4% PFA. Two millimeter transverse spinal cord segments encompassing the microinjection epicenter as well as 2 mm rostral and caudal were embedded in paraffin. Six micrometer sections were cut and slide mounted serially. Every sixth slide was stained with hematoxylin and eosin (H&E). Adjacent sections were immunostained for oligodendroglia using an antibody specific for CC-1/APC (ab16794, AbCam, Cambridge, MA), myelin using an antibody recognizing MBP (MAB386, Millipore, Bedford, MA), and standard avidin-biotin immunoperoxidase techniques (Scarisbrick et al., J Comp Neurol 431:347-361, 2001; and Scarisbrick et al. 2012b, supra). Stained sections were cover slipped with Permount (Fisher Scientific, Pittsburgh, PA) containing 2 mg/mL bisbenzamide to visualize nuclei (Sigma Aldrich).
Measurements of white matter lesion area were based on signs of pathology (vacuolation, tissue destruction, hemorrhage) in 20× digital images of H&E stained sections. The largest lesion area in each animal was used to determine mean maximal lesion area and expressed in μm^2. The integrity of MBP immunoreactivity was assessed in sections for 2,000 μm rostrocaudal to the microinjection site. The number of dorsal column CC-1^+/DAPI^+ cells was quantified in sections across […] of spinal cord extending rostrocaudal to the epicenter. The mean area of dorsal column white matter in the intact spinal cord was approximately […]. To put the number of CC-1^+ oligodendrocytes into context, the mean number CC-1V cells per mm^2 was evaluated as the mean number per […]. Sections stained for CC-1 were also stained for GFAP (Sigma Aldrich), allowing for the exclusion of CC-1^+ astrocytes; however, no examples of double labeled cells were observed.

[5] abbreviates: Klk6 150 nM, Klk1 300 nM, 24 hours.

Where no end group is shown, it is not given here.

Take `Nc1ncnc2c1ncn2[C@@H]1O[C@H](COP(=O)(O)OP(=O)(O)OP(=O)(O)O)[C@@H](O)[C@H]1O` [ATP, reference compound]: in series [1] (ATP 50 μM alone), the “number of processes per oligodendrocyte” value is “two-fold reduction”. Moreover, in series [1] (ATP 50 μM alone, 24 h), the “cells with complete morphology” value is “significant decrease”; the “cells with membrane morphology” value is given as “small, but significant increase”; the “percentage of cells with simple morphology” value is given as “significant increase”. Besides, the “oligodendrocyte number relative to control” value in series [1] (ATP alone) is listed as “significant decrease”.
In the case of `N#CC(=C(/N)Sc1ccccc1N)/C(C#N)=C(\N)Sc1ccccc1N` [U0126, reference compound], the “PLP RNA expression” value in series [2] (U0126 alone) is given as “No significant change”.
On to “Klk1: Recombinant murine Klk1 expressed using a baculovirus system”, for which the oligodendrocyte morphology entry in series [3] (300 nM) was “did not significantly impact”. In series [3] (setting [5]), the oligodendrocyte number entry is listed as “did not significantly impact” and the processes per cell entry is recorded as “did not significantly impact”. Also, the ATP-induced oligodendrocyte loss result in series [1] (co-application with ATP) is “did not increase”. Also, in series [1] (co-application with ATP 50 μM), the “number of processes per oligodendrocyte” value was “did not impact” and the “oligodendrocytes with membrane morphology” value is “significant decrease”. In the series on Oli-neu oligodendrocytes (Klk6 30 nM), the Oli-neu cell number entry is listed as “no effect”. Also, the “number of processes per cell” value in the series with Oli-neu oligodendrocytes was “no effect”. Moreover, in series [4], the “number of OPCs” value is listed as “no effect” and the “OPC process extension / outgrowth” value was “comparable to controls”. In the series on Erk1/2 phosphorylation, the Erk1/2 phosphorylation entry was “No significant changes”.
For “TFLLR-amide (TFLLR-NH2) [PAR1-AP, reference compound]”, in the series with Oli-neu oligodendrocytes, the “number of processes per cell” value is recorded as “significant decrease”. In series [2], the PLP expression entry is reported as “significantly decreased”. In addition, in the series on spinal cord white matter (PAR1+/+ mice), the “maximal lesion area relative to saline alone” value is given as “enhanced” and the “reduction of CC-1+ cells in dorsal column white matter” value is given as around 15%. For the same compound, the “loss of MBP-immunoreactivity relative to saline alone” value in the series with spinal cord white matter (PAR1+/+ mice, 72 hours) was around 45%. In the series on spinal cord white matter (PAR1+/+ mice, 0.02 μg, 72 hours), the “rostrocaudal white matter pathology” value is recorded as 1,026.0±105.3 μm. The white matter pathology entry with spinal cord white matter (PAR1-/- mice) is listed as “absent”.
For thrombin, the “number of processes per cell” value in the series on Oli-neu oligodendrocytes is “significant decrease”. In addition, in series [4], the “number of OPCs” value is given as “no effect” and the “OPC process extension / outgrowth” value is on record as “inhibited”. Besides, the PLP expression result in series [2] is “significantly decreased”.
